The source of these data is publication PMC3234165 (Biochemistry, 2011).

Test [1] concerns the target M3 (muscarinic acetylcholine receptor type 3) (Homo sapiens, UniProt P20309). As to the kind of experiment: NIMH PDSP secondary binding assay.
Test [2] has as its target 5HT2B (serotonin receptor subtype 2B) (Homo sapiens, UniProt P41595). As to the kind of experiment: NIMH PDSP secondary binding assay.
Test [3] addresses M4 (muscarinic acetylcholine receptor type 4) (Homo sapiens, UniProt P08173). As to the kind of experiment: NIMH PDSP secondary binding assay.
A further test deals with MCF-7. The experiment in a line: Multiplex cytotoxicity assay. The class given is cell-based. The conditions noted are these: Homo sapiens, MCF7, read-out: IC50 MCF-7.
In test [4] the target is H1 (histamine receptor type 1) (Homo sapiens, UniProt P35367). As to the kind of experiment: NIMH PDSP secondary binding assay.
The next test relates to Du145. The experiment in a line: Multiplex cytotoxicity assay. The class given is cell-based. The following applies: Homo sapiens, DU-145, read-out: IC50 Du145.
Test [5] has as its target 5HT1B (serotonin receptor subtype 1B) (Homo sapiens, UniProt P28222). The experiment in a line: NIMH PDSP secondary binding assay.
Test [6] has as its target β-2 (β-adrenergic receptor subtype 2) (Homo sapiens, UniProt P07550). As to the kind of experiment: NIMH PDSP secondary binding assay.
The target of test [7] is pure guinea pig sigma-1 receptor (Cavia porcellus, UniProt Q60492). The experiment in a line: Competitive displacement of [3H]-. In kind it is binding. (In a radioligand displacement assay an active substance lowers the binding of a labelled ligand.)
The target of a further test is Kv1.4 potassium channel (Rattus norvegicus, UniProt P15385+Q9R0C9). As to the kind of experiment: Whole cell patch clamp, HEK-293 cells co-expressing Kv1.4 and sigma-1 receptor. In kind it is cell-based.
Test [8] addresses M2 (muscarinic acetylcholine receptor type 2) (Homo sapiens, UniProt P08172). The experiment in a line: NIMH PDSP secondary binding assay.
Test [9] deals with H2 (histamine receptor type 2) (Homo sapiens, UniProt P25021). The experiment in a line: NIMH PDSP secondary binding assay.
For the next test, the system named is NCI-H460. The experiment in a line: Multiplex cytotoxicity assay. The following applies: Homo sapiens, NCI-H460, read-out: IC50 NCI-H460. In kind it is cell-based.
The test system of another test is SF-268. The experiment in a line: Multiplex cytotoxicity assay. The conditions noted are these: Homo sapiens, SF-268, read-out: IC50 SF-268. In kind it is cell-based.
For a further test, the system named is SK-OV-3. The experiment in a line: Multiplex cytotoxicity assay. In kind it is cell-based. The following applies: Homo sapiens, SK-OV-3, read-out: IC50 SK-OV-3.
Test [10] deals with 5HT7 (serotonin receptor subtype 7) (Homo sapiens, UniProt P34969). As to the kind of experiment: NIMH PDSP secondary binding assay.
Test [11] concerns the target D4 (dopamine receptor type 4) (Homo sapiens, UniProt P21917). As to the kind of experiment: NIMH PDSP secondary binding assay.
Test [12] deals with sigma-1 receptor (sigma-1 sites) (Cavia porcellus, UniProt Q60492). As to the kind of experiment: Competitive displacement of [3H]-. In kind it is binding, guinea pig.
Sequence of sigma-1 receptor (sigma-1 sites) (Q60492 whole entry): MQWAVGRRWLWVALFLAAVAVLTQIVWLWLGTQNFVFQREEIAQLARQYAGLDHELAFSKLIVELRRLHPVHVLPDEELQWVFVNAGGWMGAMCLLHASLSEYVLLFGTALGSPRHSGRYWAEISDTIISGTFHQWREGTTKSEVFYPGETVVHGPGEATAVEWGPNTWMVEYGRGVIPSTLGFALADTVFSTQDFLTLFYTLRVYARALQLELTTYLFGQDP

Sequence of 5HT2B (serotonin receptor subtype 2B) (P41595 whole entry, species assumed): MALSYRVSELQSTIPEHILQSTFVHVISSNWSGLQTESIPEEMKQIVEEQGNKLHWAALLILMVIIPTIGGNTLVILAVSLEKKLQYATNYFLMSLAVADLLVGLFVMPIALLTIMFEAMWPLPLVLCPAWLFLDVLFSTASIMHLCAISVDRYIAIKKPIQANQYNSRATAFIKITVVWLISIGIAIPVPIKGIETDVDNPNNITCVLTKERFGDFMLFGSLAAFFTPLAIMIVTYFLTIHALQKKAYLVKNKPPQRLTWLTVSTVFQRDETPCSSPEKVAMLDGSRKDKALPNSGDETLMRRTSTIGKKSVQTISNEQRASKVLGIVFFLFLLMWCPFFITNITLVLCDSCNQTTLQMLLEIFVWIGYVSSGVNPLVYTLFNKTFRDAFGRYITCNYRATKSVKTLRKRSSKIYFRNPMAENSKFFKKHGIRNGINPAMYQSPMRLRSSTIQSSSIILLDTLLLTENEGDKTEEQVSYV
Sequence of H1 (histamine receptor type 1) (P35367 whole entry): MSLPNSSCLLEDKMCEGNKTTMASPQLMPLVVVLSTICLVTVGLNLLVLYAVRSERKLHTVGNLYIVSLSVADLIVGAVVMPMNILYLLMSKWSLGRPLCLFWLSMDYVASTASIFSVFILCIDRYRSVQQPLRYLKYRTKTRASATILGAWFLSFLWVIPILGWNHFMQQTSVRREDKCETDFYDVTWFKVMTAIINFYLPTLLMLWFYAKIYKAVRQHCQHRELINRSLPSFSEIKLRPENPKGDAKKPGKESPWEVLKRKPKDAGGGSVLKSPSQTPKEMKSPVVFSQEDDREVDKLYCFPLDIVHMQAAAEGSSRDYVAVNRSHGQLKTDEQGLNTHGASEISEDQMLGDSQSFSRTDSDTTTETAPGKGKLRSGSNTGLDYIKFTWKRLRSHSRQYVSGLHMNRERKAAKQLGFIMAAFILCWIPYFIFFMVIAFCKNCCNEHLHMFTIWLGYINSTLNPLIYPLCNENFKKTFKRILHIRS
Sequence of β-2 (β-adrenergic receptor subtype 2) (P07550 whole entry): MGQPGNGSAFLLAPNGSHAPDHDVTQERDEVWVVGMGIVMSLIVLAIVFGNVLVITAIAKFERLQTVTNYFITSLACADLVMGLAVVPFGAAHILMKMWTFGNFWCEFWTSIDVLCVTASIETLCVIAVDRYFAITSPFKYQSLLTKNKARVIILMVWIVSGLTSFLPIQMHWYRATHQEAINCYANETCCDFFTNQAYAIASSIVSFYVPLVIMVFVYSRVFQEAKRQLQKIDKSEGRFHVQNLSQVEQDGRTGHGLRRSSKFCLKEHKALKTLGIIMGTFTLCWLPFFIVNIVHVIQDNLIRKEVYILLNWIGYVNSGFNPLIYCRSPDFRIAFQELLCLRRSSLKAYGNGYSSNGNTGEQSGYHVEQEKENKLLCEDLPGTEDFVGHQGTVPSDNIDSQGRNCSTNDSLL
Sequence of 5HT1B (serotonin receptor subtype 1B) (P28222 whole entry, species assumed): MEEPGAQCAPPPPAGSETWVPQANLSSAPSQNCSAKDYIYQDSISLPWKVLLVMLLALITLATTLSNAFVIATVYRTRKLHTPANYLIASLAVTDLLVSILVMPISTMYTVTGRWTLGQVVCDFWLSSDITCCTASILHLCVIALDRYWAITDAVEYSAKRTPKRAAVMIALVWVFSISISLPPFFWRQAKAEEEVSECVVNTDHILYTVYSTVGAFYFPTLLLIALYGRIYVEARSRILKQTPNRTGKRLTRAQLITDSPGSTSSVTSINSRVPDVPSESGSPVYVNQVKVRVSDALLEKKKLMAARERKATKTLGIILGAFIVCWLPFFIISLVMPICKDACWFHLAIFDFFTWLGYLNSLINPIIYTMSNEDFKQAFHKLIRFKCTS
Sequence of 5HT7 (serotonin receptor subtype 7) (P34969 whole entry, species assumed): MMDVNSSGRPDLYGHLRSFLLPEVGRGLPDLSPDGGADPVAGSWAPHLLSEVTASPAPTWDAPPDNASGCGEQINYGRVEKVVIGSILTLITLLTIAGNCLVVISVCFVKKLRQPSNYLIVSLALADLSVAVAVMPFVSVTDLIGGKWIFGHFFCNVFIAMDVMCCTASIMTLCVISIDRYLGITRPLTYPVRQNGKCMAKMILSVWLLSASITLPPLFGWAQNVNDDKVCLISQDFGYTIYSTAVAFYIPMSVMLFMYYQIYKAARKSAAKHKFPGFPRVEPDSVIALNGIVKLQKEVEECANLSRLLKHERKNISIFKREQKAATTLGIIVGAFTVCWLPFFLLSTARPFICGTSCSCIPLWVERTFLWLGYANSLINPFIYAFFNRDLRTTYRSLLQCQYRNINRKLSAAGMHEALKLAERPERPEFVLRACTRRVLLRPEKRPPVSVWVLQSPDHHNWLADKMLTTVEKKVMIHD
Sequence of M2 (muscarinic acetylcholine receptor type 2) (P08172 whole entry): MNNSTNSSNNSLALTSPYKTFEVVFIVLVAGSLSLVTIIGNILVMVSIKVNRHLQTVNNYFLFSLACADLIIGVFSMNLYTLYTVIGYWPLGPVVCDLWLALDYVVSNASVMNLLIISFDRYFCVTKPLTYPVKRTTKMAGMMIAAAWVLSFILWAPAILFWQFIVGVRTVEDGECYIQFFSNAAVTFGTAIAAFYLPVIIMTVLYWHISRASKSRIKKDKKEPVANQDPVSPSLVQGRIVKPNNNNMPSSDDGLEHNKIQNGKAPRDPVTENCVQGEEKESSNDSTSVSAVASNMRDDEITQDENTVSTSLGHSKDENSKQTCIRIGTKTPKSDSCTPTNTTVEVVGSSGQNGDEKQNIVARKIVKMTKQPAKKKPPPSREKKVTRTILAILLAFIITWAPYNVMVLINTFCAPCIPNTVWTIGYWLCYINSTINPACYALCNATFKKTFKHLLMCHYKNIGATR
Sequence of M3 (muscarinic acetylcholine receptor type 3) (P20309 whole entry): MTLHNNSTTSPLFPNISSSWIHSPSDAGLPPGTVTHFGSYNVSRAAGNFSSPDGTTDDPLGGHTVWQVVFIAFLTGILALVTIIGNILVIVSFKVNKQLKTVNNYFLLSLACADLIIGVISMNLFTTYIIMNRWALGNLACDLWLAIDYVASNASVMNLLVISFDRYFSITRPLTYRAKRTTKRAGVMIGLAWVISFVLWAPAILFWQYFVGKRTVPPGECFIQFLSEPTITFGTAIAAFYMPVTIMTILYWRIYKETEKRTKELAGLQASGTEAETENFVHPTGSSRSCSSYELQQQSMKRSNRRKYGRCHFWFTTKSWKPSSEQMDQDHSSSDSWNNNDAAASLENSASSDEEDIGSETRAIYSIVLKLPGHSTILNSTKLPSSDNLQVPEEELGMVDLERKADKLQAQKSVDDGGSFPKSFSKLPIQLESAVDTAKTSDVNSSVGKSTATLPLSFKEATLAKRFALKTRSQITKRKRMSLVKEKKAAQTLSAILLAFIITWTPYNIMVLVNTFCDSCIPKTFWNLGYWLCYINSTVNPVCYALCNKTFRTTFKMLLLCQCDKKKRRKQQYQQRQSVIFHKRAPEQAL
Sequence of H2 (histamine receptor type 2) (P25021 whole entry): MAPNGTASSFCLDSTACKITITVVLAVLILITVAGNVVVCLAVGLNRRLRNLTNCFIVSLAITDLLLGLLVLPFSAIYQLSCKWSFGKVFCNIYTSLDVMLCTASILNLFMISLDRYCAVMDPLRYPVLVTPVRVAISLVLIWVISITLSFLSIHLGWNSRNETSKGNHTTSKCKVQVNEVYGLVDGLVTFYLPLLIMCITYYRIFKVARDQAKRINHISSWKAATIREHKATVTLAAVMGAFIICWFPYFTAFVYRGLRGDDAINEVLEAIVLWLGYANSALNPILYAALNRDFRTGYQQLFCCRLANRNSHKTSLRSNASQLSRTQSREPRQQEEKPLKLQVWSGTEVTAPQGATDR
Sequence of M4 (muscarinic acetylcholine receptor type 4) (P08173 whole entry): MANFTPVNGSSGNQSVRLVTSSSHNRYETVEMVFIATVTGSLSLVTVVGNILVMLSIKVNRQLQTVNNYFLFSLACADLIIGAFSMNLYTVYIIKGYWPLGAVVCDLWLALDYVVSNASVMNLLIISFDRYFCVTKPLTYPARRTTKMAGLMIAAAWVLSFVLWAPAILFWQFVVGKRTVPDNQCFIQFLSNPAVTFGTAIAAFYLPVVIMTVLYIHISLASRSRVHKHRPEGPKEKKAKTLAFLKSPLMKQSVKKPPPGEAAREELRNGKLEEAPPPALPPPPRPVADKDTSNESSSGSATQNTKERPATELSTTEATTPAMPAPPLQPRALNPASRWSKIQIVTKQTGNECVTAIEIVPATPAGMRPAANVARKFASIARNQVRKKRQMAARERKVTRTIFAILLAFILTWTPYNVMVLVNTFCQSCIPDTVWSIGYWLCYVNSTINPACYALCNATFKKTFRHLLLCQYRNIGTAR
Sequence of D4 (dopamine receptor type 4) (P21917 whole entry): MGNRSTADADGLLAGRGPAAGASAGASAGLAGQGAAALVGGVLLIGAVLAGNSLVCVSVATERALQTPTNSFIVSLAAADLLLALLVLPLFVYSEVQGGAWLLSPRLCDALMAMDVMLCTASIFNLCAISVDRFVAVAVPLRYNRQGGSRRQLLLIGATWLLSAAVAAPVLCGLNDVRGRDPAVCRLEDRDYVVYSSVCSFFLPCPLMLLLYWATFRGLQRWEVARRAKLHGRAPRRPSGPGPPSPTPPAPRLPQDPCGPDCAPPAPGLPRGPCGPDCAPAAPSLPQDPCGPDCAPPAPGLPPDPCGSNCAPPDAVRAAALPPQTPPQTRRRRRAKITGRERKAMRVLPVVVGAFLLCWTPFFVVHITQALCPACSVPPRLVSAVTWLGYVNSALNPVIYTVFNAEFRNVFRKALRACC
Sequence of pure guinea pig sigma-1 receptor (Q60492 whole entry): as the sequence (Q60492 whole entry) above

As for `CCCCCCCNCCCc1ccccc1` [2a, N-(3-Phenylpropyl)heptan-1-amine], the inhibition constant (Ki) in test [1], in [2], in test [3], in test [4], in [5] and in [6] was > 10 µM in each case. For the same compound, the Ki (commonly a dissociation constant, usually derived from enzyme kinetics or from competition with a known ligand) in [7] was 0.018 ± 0.014 µM; in test [8], > 10 µM; in test [9], > 10 µM; in test [10] it was > 10 µM. Besides, the IC50 (usually the point on the concentration scale where inhibition reaches its midpoint) in the test with MCF-7 was 20 ± 1 µM; in the test on Du145, 25 ± 1 µM; against Kv1.4 potassium channel, 10 µM; in the test with NCI-H460, 45 ± 5 µM; in the test on SF-268, 63 ± 2 µM; in the test on SK-OV-3, > 100 µM.
Turning to `CCCCCCCCCCCCNCCCc1ccccc1` [3a, N-(3-Phenylpropyl)dodecan-1-amine], the Ki in test [1], in test [2], in test [3], in [4], in test [5] and in test [6] was > 10 µM throughout. For the same compound, the Ki in test [8], in test [11], in test [9] and in test [10] was > 10 µM in each case. In addition, the IC50 in the test with MCF-7 stood at 50 ± 18 µM; in the test on Du145 it was 51 ± 4 µM; with NCI-H460, 55 ± 3 µM; in the test with SF-268 it was 60 ± 14 µM; with SK-OV-3 it was 60 ± 7 µM.
For the compound `CCCCCCCCCCCCNCCCc1ccc([N+](=O)[O-])cc1` [3b, N-(3-(4-Nitrophenyl)propyl)dodecan-1-amine], the Ki is 7.9 µM in test [2]; 5.1 ± 0.2 µM in test [12]; > 10 µM in test [4]; > 10 µM in test [5]; > 10 µM in test [6]; > 10 µM in [10]. In addition, the 50% inhibitory concentration (IC50) worked out at 12 ± 1 µM in the test with MCF-7; 17 ± 0.4 µM with Du145; 18 ± 2 µM in the test on NCI-H460; 16 ± 1 µM in the test with SF-268; 16 ± 1 µM in the test on SK-OV-3.
